In patent US9624214B2, “Amino-substituted imidazo[1,2-a]pyridinecarboxamides and their use” (BAYER PHARMA AKTIENGESELLSCHAFT, priority 2012, dated 2017):
Where a name gives a salt, the structure may show the parent alone.

Target: T1, recombinant guanylate cyclase reporter cell line (Rattus norvegicus, UniProt P19686+P20595)
T1 construct: expressed in transfected cells
T1 sequence (P20595 1-619): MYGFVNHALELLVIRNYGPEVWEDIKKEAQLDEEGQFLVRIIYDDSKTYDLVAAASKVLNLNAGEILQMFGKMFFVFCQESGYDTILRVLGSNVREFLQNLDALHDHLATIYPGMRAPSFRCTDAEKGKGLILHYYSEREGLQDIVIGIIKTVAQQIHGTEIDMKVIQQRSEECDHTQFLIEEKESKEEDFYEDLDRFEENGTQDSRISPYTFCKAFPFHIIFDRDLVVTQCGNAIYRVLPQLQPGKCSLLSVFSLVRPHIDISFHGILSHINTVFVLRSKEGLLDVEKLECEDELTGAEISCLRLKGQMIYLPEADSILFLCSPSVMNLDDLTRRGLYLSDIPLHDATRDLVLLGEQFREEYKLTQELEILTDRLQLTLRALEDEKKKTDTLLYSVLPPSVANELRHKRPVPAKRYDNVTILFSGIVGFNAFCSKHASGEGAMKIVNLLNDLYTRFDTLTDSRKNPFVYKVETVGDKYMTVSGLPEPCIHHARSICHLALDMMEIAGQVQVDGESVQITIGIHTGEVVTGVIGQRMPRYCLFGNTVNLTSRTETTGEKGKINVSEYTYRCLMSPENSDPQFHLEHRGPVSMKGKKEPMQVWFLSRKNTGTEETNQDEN
T1 sequence (P19686 1-690): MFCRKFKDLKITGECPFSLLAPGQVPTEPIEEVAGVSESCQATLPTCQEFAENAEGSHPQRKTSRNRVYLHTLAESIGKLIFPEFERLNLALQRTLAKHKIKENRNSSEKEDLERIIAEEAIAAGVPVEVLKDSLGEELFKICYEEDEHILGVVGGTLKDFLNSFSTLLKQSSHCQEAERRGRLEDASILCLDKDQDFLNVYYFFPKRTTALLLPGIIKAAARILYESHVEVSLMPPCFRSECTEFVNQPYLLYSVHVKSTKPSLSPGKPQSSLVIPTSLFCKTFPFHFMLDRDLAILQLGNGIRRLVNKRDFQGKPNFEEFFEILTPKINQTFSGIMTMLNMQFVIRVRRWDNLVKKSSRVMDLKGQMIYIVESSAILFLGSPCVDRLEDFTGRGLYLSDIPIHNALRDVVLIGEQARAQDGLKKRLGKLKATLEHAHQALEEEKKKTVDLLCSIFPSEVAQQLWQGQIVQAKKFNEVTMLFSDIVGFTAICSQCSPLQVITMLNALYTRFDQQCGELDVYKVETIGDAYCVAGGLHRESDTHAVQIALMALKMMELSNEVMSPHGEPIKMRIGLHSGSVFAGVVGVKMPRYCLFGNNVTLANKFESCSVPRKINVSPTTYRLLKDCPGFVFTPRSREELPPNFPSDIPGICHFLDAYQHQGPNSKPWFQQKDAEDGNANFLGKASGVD
Assay: B-2. Action on recombinant guanylate cyclase reporter cell line
Type: cell-based
Conditions: MEC = minimal effective concentration; in some cases mean values from individual determinations
In short: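 Rat recombinant guanylate cyclase reporter cell line measures cellular activity. Value reported as MEC (minimal effective concentration), sometimes averaged over individual determinations.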

Row | MEC [µM] | SMILES
1 | 0.30 | COCC(C)(N)CNC(=O)c1c(C)nc2c(OCc3c(F)cccc3F)cccn12 (single isomer, unassigned) [Example 214, ent-N-(2-Amino-3-methoxy-2-methylpropyl)-8-[(2,6-difluorobenzyl)oxy]-2-methylimidazo[1,2-a]-pyridine-3-carboxamide]
2 | 5.5 | Cc1nc2c(OCc3c(F)cccc3F)cccn2c1C(=O)NCC(C)(N)CCO (single isomer, unassigned; enantiomer a) [Example 272, ent-N-(2-Amino-4-hydroxy-2-methylbutyl)-8-[(2,6-difluorobenzyl)oxy]-2-methylimidazo[1,2-a]-pyridine-3-carboxamide (Enantiomer A)]
3 | 0.03 | CCCC(C)(N)CNC(=O)c1c(C)nc2c(OCc3c(F)cccc3F)cc(C)cn12 (single isomer, unassigned) [Example 234, ent-N-(2-Amino-2-methylpentyl)-8-[(2,6-difluorobenzyl)oxy]-2,6-dimethylimidazo[1,2-a]pyridine-3-carboxamide]
4 | 0.3 | Cc1cc(OCc2c(F)cccc2F)c2nc(C)c(C(=O)NCC(C)(N)CF)n2c1 (racemic) [Example 282, rac-N-(2-amino-3-fluoro-2-methylpropyl)-8-[(2,6-difluorobenzyl)oxy]-2,6-dimethylimidazo[1,2-a]pyridine-3-carboxamide Formate]
5 | 0.30 | Cc1cc(OCc2c(F)cccc2F)c2nc(C)c(C(=O)NCC(C)N3CCOCC3)n2c1 (single isomer, unassigned; ent-8) [Example 186, ent-8-[(2,6-Difluorobenzyl)oxy]-2,6-dimethyl-N-[2-(morpholin-4-yl)propyl]imidazo[1,2-a]-pyridine-3-carboxamide]
6 | 0.30 | Cc1cc(OCc2c(F)cccc2F)c2nc(C)c(C(=O)NCC(C)(N)CCO)n2c1 (single isomer, unassigned; enantiomer a) [Example 271, ent-N-(2-Amino-4-hydroxy-2-methylbutyl)-8-[(2,6-difluorobenzyl)oxy]-2,6-dimethylimidazo[1,2-a]pyridine-3-carboxamide (Enantiomer A)]
7 | 0.10 | Cc1nc2c(OCc3c(F)cccc3F)cccn2c1C(=O)NC1CCNc2ccc(C(F)(F)F)cc21 (single isomer, unassigned; ent-8) [Example 112, ent-8-[(2,6-difluorobenzyl)oxy]-2-methyl-N-[6-(trifluoromethyl)-1,2,3,4-tetrahydroquinolin-4-yl]imidazo[1,2-a]pyridine-3-carboxamide]
8 | 1.00 | Cc1nc2c(OCc3c(F)cccc3Cl)cccn2c1C(=O)NC(CN)c1ccc(F)c(F)c1 (stereo not drawn) [Example 102, ent-N-[2-amino-1-(3,4-difluorophenyl)ethyl]-8-[(2-chloro-6-fluorobenzyl)oxy]-2-methylimidazo[1,2-a]pyridine-3-carboxamide]
9 | 1.00 | Cc1nc2c(OCc3c(F)cccc3F)cccn2c1C(=O)NC(C)[C@@H](C)N (single isomer, unassigned) [Example 177]
10 | 1.00 | CCCC(C)(N)CNC(=O)c1c(C)nc2c(OCc3ccccc3Cl)cc(C)cn12 (racemic) [Example 343, rac-N-(2-amino-2-methylpentyl)-8-[(2-chlorobenzyl)oxy]-2,6-dimethylimidazo[1,2-a]pyridine-3-carboxamide]
11 | 1.00 | Cc1nc2c(OCc3c(F)cccc3F)cccn2c1C(=O)NC(CN)COc1ccc(F)cc1 (racemic) [Example 58, rac-N-[1-amino-3-(4-fluorophenoxy)propan-2-yl]-8-[(2,6-difluorobenzyl)oxy]-2-methylimidazo[1,2-a]pyridine-3-carboxamide]
12 | 0.30 | Cc1nc2c(OCc3c(F)cccc3F)cccn2c1C(=O)NCC(N)C(F)(F)F (single isomer, unassigned) [Example 208, ent-N-(2-Amino-3,3,3-trifluoropropyl)-8-[(2,6-difluorobenzyl)oxy]-2-methylimidazo[1,2-a]-pyridine-3-carboxamide]
13 | 0.30 | Cc1nc2c(OCc3c(F)cccc3F)cc(Cl)cn2c1C(=O)NCC(C)N (racemic) [Example 23, rac-N-(2-aminopropyl)-6-chloro-8-[(2,6-difluorobenzyl)oxy]-2-methylimidazo[1,2-a]-pyridine-3-carboxamide]
14 | 0.30 | Cc1nc2c(OCc3c(F)cccc3F)cc(Cl)cn2c1C(=O)NCC(N)C(C)C (single isomer, unassigned) [Example 211, ent-N-(2-Amino-3-methylbutyl)-6-chloro-8-[(2,6-difluorobenzyl)oxy]-2-methylimidazo[1,2-a]-pyridine-3-carboxamide]
15 | 0.30 | CCCC(C)(N)CNC(=O)c1c(C)nc2c(OCc3c(F)cccc3F)cc(CC)cn12 (stereo not drawn) [Example 323, ent-N-(2-amino-2-methylpentyl)-8-[(2,6-difluorobenzyl)oxy]-6-ethyl-2-methylimidazo[1,2-a]pyridine-3-carboxamide]
16 | 3.00 | Cc1nc2c(OCc3c(F)cccc3F)cccn2c1C(=O)NC(CN1CCOCC1)c1ccccc1 (single isomer, unassigned; ent-8) [Example 182, ent-8-[(2,6-Difluorobenzyl)oxy]-2-methyl-N-[2-(morpholin-4-yl)-1-phenylethyl]imidazo[1,2-a]-pyridine-3-carboxamide]
17 | 1.00 | Cc1nc2c(OCc3c(F)cccc3F)cc(Cl)cn2c1C(=O)NCCN1CCN(C)CC1 [Example 154, 6-chloro-8-[(2,6-difluorobenzyl)oxy]-2-methyl-N-[2-(4-methylpiperazin-1-yl)ethyl]imidazo[1,2-a]pyridine-3-carboxamide]
18 | 1.00 | Cc1cc(OCc2c(F)cccc2F)c2nc(C)c(C(=O)NC(CN)c3ccc4ncccc4c3)n2c1 (racemic) [Example 395, rac-N-[2-amino-1-(quinolin-6-yl)ethyl]-8-[(2,6-difluorobenzyl)oxy]-2,6-dimethylimidazo[1,2-a]pyridine-3-carboxamide]
19 | 3.00 | Cc1cc(OCc2c(F)cccc2F)c2nc(C)c(C(=O)NCC(N)c3cccc(C(F)(F)F)c3)n2c1 (racemic) [Example 376, rac-N-{2-amino-2-[3-(trifluoromethyl)phenyl]ethyl}-8-[(2,6-difluorobenzyl)oxy]-2,6-dimethylimidazo[1,2-a]pyridine-3-carboxamide]
20 | 0.30 | Cc1cc(OCc2c(F)cccc2F)c2nc(C)c(C(=O)NCC(C)(N)C(F)(F)F)n2c1 (racemic) [Example 239, rac-N-(2-Amino-3,3,3-trifluoro-2-methylpropyl)-8-[(2,6-difluorobenzyl)oxy]-2,6-dimethyl-imidazo[1,2-a]pyridine-3-carboxamide]
21 | 1.00 | NCC(NC(=O)c1c(C2CC2)nc2c(OCc3c(F)cccc3F)cccn12)c1ccc(F)c(F)c1 (stereo not drawn) [Example 54, ent-N-[2-amino-1-(3,4-difluorophenyl)ethyl]-2-cyclopropyl-8-[(2,6-difluorobenzyl)oxy]-imidazo[1,2-a]pyridine-3-carboxamide]
22 | 0.03 | Cc1nc2c(OCc3c(F)cccc3F)cccn2c1C(=O)NCC(C)(N)CCOCc1ccccc1 (racemic) [Example 264, rac-N-[2-amino-4-(benzyloxy)-2-methylbutyl]-8-[(2,6-difluorobenzyl)oxy]-2-methylimidazo[1,2-a]pyridine-3-carboxamide]
23 | 0.30 | Cc1nc2c(OCc3c(F)cccc3F)cccn2c1C(=O)NC(C)[C@H](C)N (single isomer, unassigned) [Example 174]
